The values that follow come from patent US6087336A, “Peptide derivatives useful in treating autoimmune diseases” (Zeneca Limited, priority 1996, dated 2000).

Data set [1] has as its system BALB/C mice. Nature of the data set: Test C: peptide stimulated DTH (delayed type hypersensitivity) in BALB/C mice. The note with it: DTH to ovalbumin, 3-day osmotic mini-pumps. The class given is in vivo. The method, then: Test C: Peptide stimulated DTH (delayed type hypersensitivity) in BALB/C mice. […] Balbic female mice (18-20g), 5 per group, were immunised sub-cutaneously on the flank with 0.1 ml of an emulsion of ovalbumin (Sigma) (2mg/ml in saline) mixed 1:1 (v/v) with complete Freunds adjurant (Sigma). Seven days later footpad thickness was detemined using a dual caliper micrometer followed by a challenge in one hind footpad with a 30 μl sub-plantar injection of 1% heat-aggregated ovalbumin protein in saline. Twenty-four hours after antigen challenge, footpads were measured and the DTH response calculated as the percentage increase in footpad thickness in the injected footpad compared to contralateral control. Inhibitors were adminstered by 3-day osmotic mini-pumps (Alzet) implanted 24 hours prior to antigen challenge at doses ranging from 10 mg/kg/day to 0.1 μg/kg/day. The degree of inhibition was calculated by substracting the value for swelling of inhibitor treated footpads from that of the vehicle dosed controls, dividing by the control value and multiplying by 100%.

Data set [2] is classed as physicochemical. The method, then: Degradation of Dettide on in vitro release from an extruded polymer depot
A solution of McIlvaine's citric acid-phosphate buffer solution at pH 7.6 containing 0.02% sodium azide, is filtered through a 0.22 μfilter and stored at 4° C. Approximately 10 mg of extruded polymer depot containing peptide is placed in two small vials and 2 ml of the buffer solution added. The vials are then capped and stored in a water bath at 37° C. for a month. At suitable time points over a month, three 0.6ml aliquots of release medium are removed from each vial and either analysed by HPLC or stored frozen in an HPLC vial at -18° C. prior to analysis by HPLC. 1.8 ml of the buffer solution is added to each vial containing the depot to replace the release medium that has been removed at each time point.
The average amount of intact peptide in the release medium at each time point is determined by HPLC using duplicate sample injections by comparing the area of the peptide peak in the release media with the area of the peptide peak from standard buffer solutions of peptide at known concentrations. The approximate average amount of peptide degradation products in the release media at each time point is determined by HPLC by comparing the area of additional new peaks in the release media with the area of the peptide peak from standard buffer solutions of peptide at known concentrations and assuming the extinction coefficient has not changed. The average cumulative in vitro release profile of intact peptide and total peptide (intact peptide and peptide degradation products) is determined from the amounts of intact peptide and peptide degradation products in the release medium at each time point. Preferred peptides of the present invention show minimal degradation on in vitro release and thus show total peptide degradation products of less than 10% and preferably less than 5% of total peptide after a month of in vitro release into Mcllvaine's buffer solution at pH 7.6 at 37° C.

The format of data set [3] is physicochemical. The method, then: Typical procedures for measuring the level of degradation of a peptide of the present invention are as follows:
Prenaration of extruded polymer depot formulation of peptide
About 20 mg of peptide is accurately weighed and sufficient polymer (50/50% molar poly(D,L-lactic acid/glycolic acid) copolymer of approximate weight average molecular weight 20kD and approximate polydispersity of 1.7 as determined by size exclusion chromatography relative to polystyrene standards) added to produce an approximate 20% w/w mixture. This is dissolved in […] glacial acetic acid to produce an approximate 10% w/v solution. The solution is freeze dried and the resulting freeze dried product is stored under vacii, prior to use.
About 100 mg of freeze dried material is loaded into the barrel of a small laboratory extruder and the plunger pushed down to consolidate the sample. The extruder is heated to between 90 and 95° C. and held at this temperature for 10 minutes before the freeze dried material is extruded under presure to give a cylindrical extrudate of approximately 1 mm in diameter.
Analysis of peptide content of extruded polymer depot formulation of peptide
Two approximate 5 mm lengths of extruded polymer depot containing peptide are accurately weogjed amd eacj dosspved 1 ml of anhydride-free glacial acetic acid in separate 25 ml bolumertic flasks. After about 1.5 hours the volume of each is made up to 25 ml with distilled water, causing the polymer to precipitate. The solids are filtered off using a 0.5 μm Millex PTFE filter and the solutions, A, collected. […]
Each standard is filtered through a 5 μm Millex PTFE filter and an aliquot of filtrate, together with aliquots of the solutions A, analysed by HPLC using duplicate sample injections. The peptide content of the extruded polymer depot formulation of peptide is calculated from the concentration of peptide in solutions A, which is determined by comparing the area of the peptide peak in solutions A with the area of the peptide peak from the standard solutions.
The source holds these as a separate data set.

Consider “Phv-Arg-Ala-Ala-Ala-Val-IIb-Ala-Pip-NH2 [Example 5]”, for which the “dose at which active in Test C” value in data set [1] is less than 0.1 mg/kg/day. Moreover, in data set [2], the “degradation on release from depot formulation” value is recorded as “minimal degradation on release”. Besides, in data set [3], the “loss due to degradation on extrusion” value is on record as “minimal loss due to degradation on extrusion”.
The like results for “Phv-Gap(Me)4 -Ala-Ala-Ala-Thr-IIb-Ala-Papa-NH2 [Example 16]” were, in that order, less than 0.1 mg/kg/day, “minimal degradation on release” and “minimal loss due to degradation on extrusion”.
In the case of “Phv-Ala-Arg-Ala-IIb-Ala-Arg-Ala-Papa-NH2 [Example 23]”, the “dose at which active in Test C” value in data set [1] was less than 0.1 mg/kg/day. In addition, in data set [2], the “degradation on release from depot formulation” value is reported as “minimal degradation on release”. The “loss due to degradation on extrusion” value in data set [3] is “minimal loss due to degradation on extrusion”.
